In US9856220B2 (AbbVie Deutschland GmbH & Co. KG, priority 2011, dated 2018):

Legend:
PDE10A = PDE10A (Homo sapiens (Human), UniProt Q9Y233); test: Measurement of PDE activity (recombinant PDE, cAMP HTRF); type: biochemical; details: 20 nM cyclic nucleotide substrate, 60 minutes at 29 C
Procedure, shortened: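 Recombinant human PDE10A in 20 mM Tris-HCl pH 7.5, 10 mM MgCl2, 0.1% BSA with 20 nM cyclic nucleotide substrate; reaction 60 min at 29 C after compound preincubation with enzyme. Residual cAMP detected by HTRF (cAMP-d2/anti-cAMP cryptate); IC50 from inhibitor concentration versus PDE activity.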

[1] = Determination of the microsomal half-life / microsomal clearance, rat liver microsomes; type: in vitro ADME; details: 0.5 μM test substance, 0.25 mg of microsomal protein/ml, pH 7.4, 37° C.
Description: (§1) b) Determination of the Microsomal Half-Life:
(§2) The metabolic stability of the compounds of the invention was determined in the following assay.
(§3) The test substances were incubated in a concentration of 0.5 μM as follows:
(§4) 0.5 μM test substance are preincubated together with liver microsomes from different species (from rat, human or other species) (0.25 mg of microsomal protein/ml) in 0.05 M potassium phosphate buffer of pH 7.4 in microtiter plates at 37° C. for 5 min. The reaction is started by adding NADPH (1 mg/mL). After 0, 5, 10, 15, 20 and 30 min, 50 μl aliquots are removed, and the reaction is immediately stopped and cooled with the same volume of acetonitrile. The samples are frozen until analyzed. The remaining concentration of undegraded test substance is determined by MSMS. The half-life (T½) is determined from the gradient of the signal of test substance/unit time plot, it being possible to calculate the half-life of the test substance, assuming first order kinetics, from the decrease in the concentration of the compound with time. The microsomal clearance (mCl) is calculated from mCl=ln 2/T½/(content of microsomal protein in mg/ml)×1000 [ml/min/mg]

[2] = Determination of the microsomal half-life / microsomal clearance, human liver microsomes; type: in vitro ADME; details: 0.5 μM test substance, 0.25 mg of microsomal protein/ml, pH 7.4, 37° C.
Description: as §1, §2, §3, §4

rats [3] = details: cited from earlier work
rats [4] = details: cited from earlier work; remark: listed apart in the source
rats [5] = details: rat, in vivo; cited from earlier work

PDE10A, sequence (Q9Y233 whole entry, species assumed): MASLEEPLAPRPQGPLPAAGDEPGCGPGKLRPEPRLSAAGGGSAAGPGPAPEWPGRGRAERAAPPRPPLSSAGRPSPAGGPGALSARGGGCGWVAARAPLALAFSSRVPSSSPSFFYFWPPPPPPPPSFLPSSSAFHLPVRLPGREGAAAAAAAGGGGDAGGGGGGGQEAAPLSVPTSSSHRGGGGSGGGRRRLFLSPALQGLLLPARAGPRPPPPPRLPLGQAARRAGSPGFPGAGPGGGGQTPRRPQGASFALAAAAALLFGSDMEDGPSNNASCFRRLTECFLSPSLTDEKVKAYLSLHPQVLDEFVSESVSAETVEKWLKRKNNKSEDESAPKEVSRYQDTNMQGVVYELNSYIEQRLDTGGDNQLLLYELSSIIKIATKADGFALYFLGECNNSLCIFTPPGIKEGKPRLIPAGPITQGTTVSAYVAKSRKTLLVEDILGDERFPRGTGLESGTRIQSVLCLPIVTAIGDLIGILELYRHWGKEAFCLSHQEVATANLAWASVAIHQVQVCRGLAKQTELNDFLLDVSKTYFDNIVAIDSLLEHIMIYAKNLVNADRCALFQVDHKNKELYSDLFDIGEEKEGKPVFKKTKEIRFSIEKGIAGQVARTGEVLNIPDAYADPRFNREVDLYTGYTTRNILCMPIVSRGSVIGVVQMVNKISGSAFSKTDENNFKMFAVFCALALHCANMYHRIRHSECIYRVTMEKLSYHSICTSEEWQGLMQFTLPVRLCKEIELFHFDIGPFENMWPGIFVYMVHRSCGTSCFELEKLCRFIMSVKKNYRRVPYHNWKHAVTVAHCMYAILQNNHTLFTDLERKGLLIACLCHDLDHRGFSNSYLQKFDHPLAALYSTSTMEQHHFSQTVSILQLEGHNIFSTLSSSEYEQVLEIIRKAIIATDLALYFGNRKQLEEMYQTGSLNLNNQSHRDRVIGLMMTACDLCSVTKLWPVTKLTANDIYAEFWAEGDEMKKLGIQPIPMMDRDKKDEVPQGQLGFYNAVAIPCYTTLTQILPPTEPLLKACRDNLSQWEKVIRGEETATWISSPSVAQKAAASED

Row | IC50 (PDE10A) | Rat mCl [1] | Human mCl [2] | Compound | catalepsy on its own (rats [3]; compound alone) | cataleptic effect of the D2 receptor antagonist haloperidol (rats [3]; with haloperidol) | hyperactivity induced by PCP (rats [4]) | reduction of amphetamine-induced hyperactivity (rats [5])
1 | 0.1 to 0.2 µM | ∘ (>220 μl min^−1 mg^−1) | + (100-220 μl min^−1 mg^−1) | CCC(CC)n1cc(C(=O)NCc2ccc(C)o2)c2cc(OC)c(OC)cc2c1=O [Example 251, 6,7-Dimethoxy-N-((5-methylfuran-2-yl)methyl)-1-oxo-2-(pentan-3-yl)-1,2-dihydroisoquinoline-4-carboxamide] |  |  |  | 
2 | < 0.1 µM | + (100-220 μl min^−1 mg^−1) | ∘ (>220 μl min^−1 mg^−1) | CCC(CC)n1cc(C(=O)NC2CCc3ccc(OC)cc32)c2cc(OC)c(OC)cc2c1=O (stereo not shown) [Example 256, 6,7-Dimethoxy-N-(6-methoxy-2,3-dihydro-1H-inden-1-yl)-1-oxo-2-(pentan-3-yl)-1,2-dihydroisoquinoline-4-carboxamide] |  |  |  | 
3 | 0.1 to 0.2 µM | ++ (<100 μl min^−1 mg^−1) | ++ (<100 μl min^−1 mg^−1) | CCC(CC)n1cc(C(=O)NCc2ccccn2)c2cc(OC)c(OC)cc2c1=O [Example 263, 6,7-Dimethoxy-1-oxo-2-(pentan-3-yl)-N-(pyridin-2-ylmethyl)-1,2-dihydroisoquinoline-4-carboxamide] |  |  |  | 
4 | 0.1 to 0.2 µM | ∘ (>220 μl min^−1 mg^−1) | + (100-220 μl min^−1 mg^−1) | CCC(CC)n1cc(C(=O)NCc2occc2C)c2cc(OC)c(OC)cc2c1=O [Example 267, 6,7-Dimethoxy-N-((3-methylfuran-2-yl)methyl)-1-oxo-2-(pentan-3-yl)-1,2-dihydroisoquinoline-4-carboxamide] |  |  |  | 
5 | 0.2 to 0.5 µM | ++ (<100 μl min^−1 mg^−1) | ++ (<100 μl min^−1 mg^−1) | CCc1ccc(CNC(=O)c2cn(CC)c(=O)c3cc(OC)c(OC)cc23)cc1 [Example 313, 2-Ethyl-N-[(4-ethylphenyl)methyl]-6,7-dimethoxy-1-oxo-isoquinoline-4-carboxamide] |  |  |  | 
6 | 0.2 to 0.5 µM | ++ (<100 μl min^−1 mg^−1) | ++ (<100 μl min^−1 mg^−1) | CCn1cc(C(=O)NCc2csc(C)n2)c2cc(OC)c(OC)cc2c1=O [Example 316, 2-Ethyl-6,7-dimethoxy-N-[(2-methylthiazol-4-yl)methyl]-1-oxo-isoquinoline-4-carboxamide] |  |  |  | 
7 | 0.1 to 0.2 µM | + (100-220 μl min^−1 mg^−1) | ++ (<100 μl min^−1 mg^−1) | CCn1cc(C(=O)NCc2cc(C)cs2)c2cc(OC)c(OC)cc2c1=O [Example 317, 2-Ethyl-6,7-dimethoxy-N-[(4-methyl-2-thienyl)methyl]-1-oxo-isoquinoline-4-carboxamide] |  |  |  | 
8 | 0.2 to 0.5 µM | ++ (<100 μl min^−1 mg^−1) | ++ (<100 μl min^−1 mg^−1) | CCn1cc(C(=O)NCc2ccc(C3CC3)cc2)c2cc(OC)c(OC)cc2c1=O [Example 318, N-[(4-Cyclopropylphenyl)methyl]-2-ethyl-6,7-dimethoxy-1-oxo-isoquinoline-4-carboxamide] |  |  |  | 
9 |  |  |  | COc1ccc(Cc2nccc3cc(OC)c(OC)cc23)cc1OC [Papaverine, papaverine] | did not cause catalepsy on its own | potentiated the cataleptic effect | reduced hyperactivity | insignificant
